Measured values as given in US20190083573A1, “DESIGNER RECEPTORS FOR […] AND METHODS OF USE THEREOF” (The Board of Trustees of the Leland Stanford Junior …, priority 2016, published 2019).

Legend:
[1] = Effect of other analgesics on the light intensity required for a pain-related response (optical withdrawal testing); format: in vivo; conditions: mice, blinded experiments
Protocol: (§1) In mice that were co-injected with AAV6-hSyn-HA-hM4D-IRES-mCitrine and AAV6-hSyn-ChR2-YFP optical withdrawal testing was performed 2-3 weeks post injection. Mice were placed on a glass surface and allowed to habituate for 30-45 minutes. A 473 nm laser was connected to a fiber optic cable, and used to illuminate the paw regions of the mice at varying light intensities. Mice responded to the blue light with characteristic pain-signs, engaging in paw withdrawal, shaking, and licking. […] This value was termed the ‘optical withdrawal threshold’. Due to variation in the effective illumination spot, the optical withdrawal threshold was measured in total illuminated output (in mW), rather than in mW/mm^2. Mice were then briefly anesthetized with isoflurane, and injected intra-peritoneally with 100 μl of clozapine-N-oxide (for an effective dose of 10 mg/kg) or 100 μl of saline. Post-injection testing was done in a blinded manner, with optical withdrawal thresholds collected at 60-90 minutes. Data were then unblinded, and statistical significance assessed using the Student's t-test.

[2] = molecular target: T1, hM4D(Gi) (Homo sapiens, UniProt P08173, A203G/Y113C); test: Mechanical withdrawal testing (von Frey) after intraperitoneal CNO in mice expressing hM4D; format: in vivo; conditions: mice expressing hM4D receptor, 10 mg/kg CNO i.p., 60 min after administration, n=10 paws
T1 construct: HA (N); expressed in transfected cells; host or cells: mouse sciatic-nerve primary afferent nociceptors, transduced in vivo with AAV6 under the hSyn promoter
T1 sequence (P08173 1-479 Y113C/A203G): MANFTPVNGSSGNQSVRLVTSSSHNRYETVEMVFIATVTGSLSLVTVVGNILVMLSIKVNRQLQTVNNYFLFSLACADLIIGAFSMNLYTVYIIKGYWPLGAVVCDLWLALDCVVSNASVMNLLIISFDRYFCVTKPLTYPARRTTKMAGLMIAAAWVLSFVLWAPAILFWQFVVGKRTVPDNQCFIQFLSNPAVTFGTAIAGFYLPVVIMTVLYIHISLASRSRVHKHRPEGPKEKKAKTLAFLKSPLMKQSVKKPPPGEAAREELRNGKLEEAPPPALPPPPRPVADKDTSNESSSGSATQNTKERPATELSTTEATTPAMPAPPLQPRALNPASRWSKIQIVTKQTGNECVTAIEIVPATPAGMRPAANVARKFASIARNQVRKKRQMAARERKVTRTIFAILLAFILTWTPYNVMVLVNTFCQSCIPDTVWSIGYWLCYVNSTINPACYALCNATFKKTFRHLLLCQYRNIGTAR
Protocol: (§2) 6-8 week old mice were anesthetized with 2% isoflurane, the thigh region was cleaned and sterilized, and then the sciatic nerve was exposed. A 35 G needle was inserted into the nerve, and 2-5 μl of AAV6-hSyn-HA-hM4D-IRES-mCitrine was injected into the nerve, at the rate of 1 μl/min. The cavity was then closed, analgesics were administered, and the recovery of the mice was observed. In some experiments, mice were co-injected with 3 μl of AAV6-hSyn-ChR2-YFP, to allow for analysis of chemogenetic inhibition of optogenetically evoked pain response.
(§3) Mice were tested 3-5 weeks after intraneural injection. Mice were placed on a von Frey apparatus, and allowed to habituate for 1 hour. Mechanical withdrawal thresholds were obtained using the up-down method of testing. Mice were then briefly anesthetized with isoflurane, and injected intra-peritoneally with 100 μl of clozapine-N-oxide (for an effective dose of 10 mg/kg) or 100 μl of saline. Post-injection testing was done in a blinded manner, with mechanical withdrawal thresholds collected at 45-120 minutes post-injection. Data were then unblinded, and statistical significance assessed using the Student's t-test.

[3] = molecular target: T1, hM4D(Gi); test: Thermal withdrawal testing (Hargreaves) after intraperitoneal CNO in hM4D(Gi) mice; format: in vivo; conditions: 10 mg/kg CNO i.p.
Protocol: as §2
as §3, with “Hargreaves” for “von Frey”, “Thermal” for “Mechanical”, “latencies” for “thresholds”, “then obtained.” for “obtained using the up-down method of testing.”, “thermal” for “mechanical”

[4] = molecular target: T1, hM4D(Gi); test: Optical withdrawal testing after CNO in hM4D+/ChR2+ mice; format: in vivo; conditions: 10 mg/kg CNO i.p., 60 min after administration, n=5 mice
Protocol: as §2
as §1, with “Mice were then briefly anesthetized with isoflurane, and injected intra-peritoneally with 100 μl of clozapine-N-oxide (for an effective dose of 10 mg/kg) or 100 μl of saline. Post-injection testing was done in a blinded manner, with optical withdrawal thresholds collected at 60-90 minutes.” left out

[5] = tested on: primary afferents; conditions: previously observed optogenetic inhibition of thermal perception; cited from earlier work
[6] = tested on: primary afferents; conditions: previously reported optogenetic inhibition of primary afferents; cited from earlier work

## NCC1(CC(=O)O)CCCCC1 [gabapentin]
[1]
  effect on optical light sensitivity: strong effects

## C[N+]1([O-])CCN(C2=Nc3cc(Cl)ccc3Nc3ccccc32)CC1 [CNO, clozapine-N-oxide]
[2]
  effect size, mechanical withdrawal thresholds: 1.3
  increase in mechanical withdrawal thresholds: 45%
[3]; 60 minutes post-injection
  effect size, thermal thresholds: 1.903
  increase in thermal thresholds: 61%
[3]; 90 minutes post-injection
  effect size, thermal thresholds: 2.2245
  increase in thermal thresholds: 54%
[4]
  effect size, optical withdrawal threshold: 1.603
  increase in required light intensity to achieve a pain-related response (optical withdrawal threshold): 418%

B1: NpHR: hyperpolarizing light-activatable polypeptide used for optogenetic inhibition (protein, UniProt P15647 1-291, looked up)
Halorhodopsin: MTETLPPVTESAVALQAEVTQRELFEFVLNDPLLASSLYINIALAGLSILLFVFMTRGLDDPRAKLIAVSTILVPVVSIASYTGLASGLTISVLEMPAGHFAEGSSVMLGGEEVDGVVTMWGRYLTWALSTPMILLALGLLAGSNATKLFTAITFDIAMCVTGLAAALTTSSHLMRWFWYAISCACFLVVLYILLVEWAQDAKAAGTADMFNTLKLLTVVMWLGYPIVWALGVEGIAVLPVGVTSWGYSFLDIVAKYIFAFLLLNYLTSNESVVSGSILDVPSASGTPADD
[5]
  effect size of inhibition, thermal perception: 2.05
[6]
  effect size of inhibition, mechanical: 0.802
